The record followed here is ChEMBL document CHEMBL1201862, “PubChem BioAssay data set” (2004).

The structures appear in SMILES notation.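 Test compounds were applied to cells in 96-well plates for 48 hours at 5 doses. GI50: concentration for 50% inhibition of growth.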 Active and inactive are the calls of the source. No stated cut-off is given here; in the data, active = GI50 up to about 1.1 µM and inactive = higher. A value given as a limit tells only on which side of the number the result lay.

Some test systems named below: Hs-578T; MDA-MB-231; MDA-MB-435; T47D; MDA-N; BT-549; DU-145; LXFL 529; 786-0.
Assay in all cases: growth of human tumour cells (NCI), 48 h

As to `Oc1ccc(Cl)cc1C1=Nn2c(COc3ccc4c(c3)CCCC4)nnc2SC1`, the GI50 in the assay on Hs-578T was 14.3 µM (inactive); in the assay with MDA-MB-231, 14.8 µM (inactive); with MDA-MB-435, 17 µM (inactive); with T47D it was 11.2 µM (inactive); with MDA-N it was 14.6 µM (inactive); in the assay with BT-549, 18.3 µM (inactive). In addition, the GI50 in the assay on DU-145 is 18.3 µM (inactive).

`Cc1cc2cccc(Cl)c2nc1C(=O)c1ccccc1`: in the assay on LXFL 529, the GI50 was > 100 µM (inactive).

Turning to `CC(C)C1=CC2=CC[C@@H]3[C@](C)(CCC[C@@]3(C)C(=O)O)[C@H]2CC1` [ABIETIC ACID], the GI50 in the assay on LXFL 529 is 64.3 µM (inactive).

For the molecule `CCCOC(=O)CNC(=O)OC(C)(C)C`, the GI50 in the assay with LXFL 529 is > 100 µM (inactive).

Turning to `COc1ccc(C2C(=O)C(Cl)N2Nc2nc(C)cc(O)n2)cc1OC` (configuration not stated), the GI50 in the assay with LXFL 529 is 41.3 µM (inactive).

Take `O=C1OC(c2ccccc2)=N/C1=C\c1cccnc1`: the GI50 is > 100 µM (inactive) in the assay on Hs-578T, > 100 µM (inactive) in the assay on MDA-MB-435 and 59.8 µM (inactive) in the assay on BT-549.

With `CCOC(=O)c1c(NC(=S)NCc2ccccc2)sc2c1CCN(C)C2`, the GI50 is 64.4 µM (inactive) with Hs-578T; 47.8 µM (inactive) in the assay on MDA-MB-231; 41.5 µM (inactive) in the assay on T47D; > 100 µM (inactive) in the assay with MDA-N; 59 µM (inactive) with BT-549; 64.1 µM (inactive) in the assay with DU-145.

For the molecule `CCN(CC)C(=O)C(C)n1cc(C)c(=O)[nH]c1=O` (configuration not stated), the GI50 in the assay on 786-0 and with LXFL 529 was > 100 µM (inactive) throughout.
